One series relates to CYP3A. The settings on record: in vivo; cited from earlier work.
Series [1] has as its system dark-adapted pupil diameter (miosis). Nature of the series: Methadone pupil effect. It counts as in vivo, human. The settings on record: for AUEC0-∞ / Maximum miosis: 6.0 mg IV and 11.0 mg oral methadone HCl.
A short description of the next series: Intravenous. The conditions noted are these: for EH (hepatic extraction) / AUC(0-inf) / Cmax: 6.0 mg IV methadone HCl; for AUC(0-t) / AUC(0-inf) / Cmax: human, plasma, iv, 6 mg; for AUC(0-t): AUC0-96, 6.0 mg IV methadone HCl; for AUC(0-inf): AUC0-∞.
The nature of another series: Oral. The settings on record: human, plasma, 11 mg, control.
[2] abbreviates: steady-state ritonavir/indinavir.

The text below walks through data of publication PMC3111241 (Anesthesiology, 2009).

SMILES strings stand for the structures.

Regarding `Cc1c(O)cccc1C(=O)N[C@@H](CSc1ccccc1)[C@H](O)CN1C[C@H]2CCCC[C@H]2C[C@H]1C(=O)NC(C)(C)C` [nelfinavir], the “inhibition of hepatic and first-pass CYP3A” value in the series with CYP3A is on record as over 75%.

As to `CCC(=O)C(CC(C)N(C)C)(c1ccccc1)c1ccccc1` (centres unmarked) [methadone], the “AUEC0-∞” value is 65 ± 26 mm/h in series [1] (acute ritonavir/indinavir), 52 ± 24 mm/h in series [1] (control) and 48 ± 25 mm/h in series [1] (setting [2]). Moreover, the values for the Maximum miosis in series [1] (acute ritonavir/indinavir), in series [1] (control) and in series [1] (setting [2]) were 3.5 ± 0.7 mm, 2.9 ± 1.0 mm and 3.2 ± 0.8 mm, respectively. The “methadone miosis and concentration-effect relationships, change by acute or steady-state ritonavir/indinavir” value in series [1] (in vivo) is given as “not significantly changed”.

The term AUC(0-t) denotes exposure summed from dosing to a finite time, without extrapolation to infinity. The term AUC(0-inf) denotes the area under the concentration-time curve extrapolated to infinity. Higher therefore signals more exposure. In general, Cmax refers to the maximum level reached in the sampled fluid or tissue. Turning to `CCC(=O)C(C[C@H](C)N(C)C)(c1ccccc1)c1ccccc1` [S-methadone], the “EH (hepatic extraction)” value amounted to 0.10 ± 0.04 in the series “Intravenous” (acute ritonavir/indinavir), 0.08 ± 0.02 in “Intravenous” (control) and 0.10 ± 0.04 in “Intravenous” (setting [2]). Moreover, the AUC(0-t) in the series “Intravenous” (acute ritonavir/indinavir) worked out at 353 ± 150 ng·h/mL; in “Intravenous” (control) it was 401 ± 81 ng·h/mL; in “Intravenous” (setting [2]), 377 ± 170 ng·h/mL; in “Oral” (AUC0-96, 11.0 mg oral methadone HCl) it was 639 ± 165 ng·h/mL. Moreover, the AUC(0-inf) in “Intravenous” (acute ritonavir/indinavir) came to 390 ± 178 ng·h/mL; in the series “Intravenous” (control) it was 436 ± 91 ng·h/mL; in the series “Intravenous” (setting [2]), 406 ± 185 ng·h/mL; in “Oral” (AUC0-∞, 11.0 mg oral methadone HCl) it was 710 ± 185 ng·h/mL. Further, the Cmax in “Intravenous” (acute ritonavir/indinavir) stood at 69 ± 26 ng/mL; in “Intravenous” (control) it was 90 ± 53 ng/mL; in “Intravenous” (setting [2]), 80 ± 33 ng/mL; in “Oral” (Cmax, 11.0 mg oral methadone HCl), 23 ± 6 ng/mL.
